Reference: patent US5110816A, “3-[2-(4-arylpiperazin-1-yl)ethoxy]-p-cymene, the method of preparing and composition thereof” (Institut de Recherches Chimiques et Biologiques Appliquees …, priority 1988, dated 1992)
Structures can show the parent of a compound that is named as a salt.

Assays:
[1] = Acute toxicity in mice, single oral dose; details: mouse, in vivo, p.o., 14-day observation
Method: The products were administered orally to mice in a single dose. After a 14-day observation period, the mortality was recorded.
The results are expressed in the form of the 50% lethal dose (LD50) in mg.kg^-1.

[2] = test system: toxicity of norepinephrine; assay: Adrenolytic activity in vivo in rats (protection against norepinephrine lethality); details: for ED50: Rattus norvegicus, oral 30 minutes before i.v. norepinephrine 0.4 mg.kg^-1, dose protecting 50 percent of animals; for protection against the toxicity of norepinephrine (in words): oral
Method: 4. Determination of the Adrenolytic Activity "In Vivo" in Rats
The intravenous injection of norepinephrine (0.4 mg.kg^-1) in wake rats causes the death of 100 percent of the animals. The prior administration of a substance with an alpha-blocking property makes it possible to reduce this toxicity.
The products claimed were administered orally 30 minutes before the intravenous injection of norepinephrine.
These are expressed in the form of the 50% effective dose (ED50), i.e. the dose, in mg.kg^-1, which protects 50 percent of the animals.

ureteral pressure = assay: Norepinephrine-induced ureteral hyperpressure in anesthetized rabbits; type: in vivo; details: for ratio of ID50 arterial pressure to ID50 ureteral pressure: I.V.; for ED50: Oryctolagus cuniculus, iv, norepinephrine i.v., 50% inhibition of increase in ureteral pressure, read-out: Ureteral pressure ID50
From the text: (§1) 5. Activity on Ureteral Hyperpressure in Rabbits
(§2) An increase in the arterial pressure and the ureteral pressure is induced in anesthetized rabbits by an intravenous injection of norepinephrine. These hyperpressures can be inhibited by the prior administration of molecules with alpha-blocking potential.

arterial pressure = assay: Norepinephrine-induced arterial hyperpressure in anesthetized rabbits; type: in vivo; details: Oryctolagus cuniculus, iv, norepinephrine i.v., 50% inhibition of increase in arterial pressure, read-out: Arterial pressure ID50
Method: as §1, §2
The efficacy is assessed by the 50% inhibitory dose (ID50), i.e. the dose which inhibits the increases in arterial and ureteral pressures by 50 percent.

[3] = molecular target: T1, postsynaptic alpha-adrenergic receptors (Rattus norvegicus, UniProt P43140); assay: Alpha-blocking activity on isolated rat vas deferens; type: cell-based; details: norepinephrine contraction, -log of product concentration at which norepinephrine concentration must be doubled, read-out: pA2 (converted)
T1 construct: contraction of the isolated vas deferens; from tissue; host or cells: isolated rat vas deferens
T1 sequence (P43140 1-466): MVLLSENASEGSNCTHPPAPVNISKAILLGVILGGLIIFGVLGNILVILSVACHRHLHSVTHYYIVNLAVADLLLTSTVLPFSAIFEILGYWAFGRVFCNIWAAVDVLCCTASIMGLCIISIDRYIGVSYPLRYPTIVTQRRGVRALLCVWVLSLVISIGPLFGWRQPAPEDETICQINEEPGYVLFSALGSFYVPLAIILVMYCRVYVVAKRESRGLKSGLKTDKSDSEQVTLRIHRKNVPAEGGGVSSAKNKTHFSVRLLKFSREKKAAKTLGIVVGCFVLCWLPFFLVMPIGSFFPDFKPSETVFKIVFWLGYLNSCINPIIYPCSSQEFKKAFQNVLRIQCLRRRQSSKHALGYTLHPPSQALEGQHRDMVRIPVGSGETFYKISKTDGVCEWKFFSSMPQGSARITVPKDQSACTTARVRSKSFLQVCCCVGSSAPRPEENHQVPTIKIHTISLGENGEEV
From the text: 2. Determination of the Alpha-Blocking Activity on Isolated Rat Vas Deferens
Stimulation of the postsynaptic alpha-adrenergic receptors by norepinephrine causes contraction of the isolated vas deferens. The aim is to find the product concentration in whose presence the norepinephrine concentration must be doubled in order to obtain the same effect as in the absence of said product.
The logarithm of this concentration, with its sign changed, represents the pA2 value of the product.

[4] = Solubility remark in the isolated rat vas deferens test (Table II); type: physicochemical; details: under pA2 in Table II, value N.D.
[5] = test system: postsynaptic alpha-adrenergic receptors; assay: Alpha-blocking activity on isolated rabbit ureter; type: cell-based; details: norepinephrine contraction halved, printed in Table II with asterisk
From the text: 3. Determination of the Alpha-Blocking Activity on Isolated Rabbit Ureter
Stimulation of the postsynaptic alpha-adrenergic receptors by norepinephrine causes contraction of the isolated rabbit ureter.
The aim is to find the product concentration in whose presence the contracting effect of a given norepinephrine concentration is halved by comparison with the contraction induced before the addition of said product.
The logarithm of this concentration, with its sign changed, represents the pD'2 value.

| SMILES | LD50 at 336 h [1] | ED50 [2] | protection against the toxicity of norepinephrine (in words) [2] | ratio of ID50 arterial pressure to ID50 ureteral pressure (ureteral pressure) | ED50 (ureteral pressure) | ED50 (arterial pressure) | Kb [3] | solubility remark [4] | pD'2 [5] |
| --- | --- | --- | --- | --- | --- | --- | --- | --- | --- |
| CCOc1ccccc1N1CCN(CCOc2cc(C)ccc2C(C)C)CC1 [B 1178, 3-[2-(4-o-ethoxyphenylpiperazin-1-yl)ethoxy]-p-cymene dihydrochloride] | > 1000 mg/kg | 2 mg/kg | excellent protection against the toxicity of norepinephrine | 10.6 | 0.37 mg/kg | 3.9 mg/kg | 72.4 nM |  |  |
| Cc1ccc(C(C)C)c(OCCN2CCN(c3ccccc3Cl)CC2)c1 [B 1299, 3-[2-(4-o-chlorophenylpiperazin-1-yl)ethoxy]-p-cymene hydrochloride] | > 1000 mg/kg | 10 mg/kg | excellent protection against the toxicity of norepinephrine |  |  |  | 347 nM |  |  |
| COc1ccc(N2CCN(CCOc3cc(C)ccc3C(C)C)CC2)c(OC)c1 [B 1362] | 897 mg/kg | 37.3 mg/kg |  |  |  |  | > 1000 nM |  |  |
| Cc1ccc(C(C)C)c(OCCN2CCN(c3ccc(F)cc3)CC2)c1 [B.1055, 3-[2-(4-p-fluorophenylpiperazin-1-yl)ethoxy]-p-cymene dihydrochloride] | > 1000 mg/kg | > 100 mg/kg |  |  |  |  | 468 nM |  |  |
| Cc1ccc(C(C)C)c(OCCN2CCN(c3ccccc3)CC2)c1 [B.1057, 3-[2-(4-phenylpiperazin-1-yl)ethoxy]-p-cymene dihydrochloride] | > 1000 mg/kg | > 100 mg/kg |  |  |  |  | 398 nM |  |  |
| Cc1ccc(C(C)C)c(OCCN2CCN(c3cccc(C(F)(F)F)c3)CC2)c1 [B.1079, 3-[2-(4-α,α,α-trifluoro-m-tolylpiperazin-1-yl)ethoxy]-p-cymene monohydrochloride] | > 1000 mg/kg | > 100 mg/kg |  |  |  |  | > 1000 nM |  |  |
| CC(=O)c1ccc(N2CCN(CCOc3cc(C)ccc3C(C)C)CC2)cc1 [B.1105, 3-[2-(4-p-acetylphenylpiperazin-1-yl)ethoxy]-p-cymene hydrochloride] | ~540 mg/kg | 200 mg/kg |  |  |  |  | 537 nM |  |  |
| COc1ccc(N2CCN(CCOc3cc(C)ccc3C(C)C)CC2)cc1 [B.1115, 3-[2-(4-p-methoxyphenylpiperazin-1-yl)ethoxy]-p-cymene dihydrochloride] | > 1000 mg/kg | 200 mg/kg |  |  |  |  | 288 nM |  |  |
| Cc1ccc(C(C)C)c(OCCN2CCN(c3ccc(Cl)cc3C)CC2)c1 [B.1152, 3-[2-4-(4-chloro-2-methyl)phenylpiperazine-1-yl)ethoxy]-p-cymene hydrochloride] | > 1000 mg/kg | > 100 mg/kg |  |  |  |  |  | insoluble |  |
| COc1ccccc1N1CCN(CCOc2cc(C)ccc2C(C)C)CC1 [B.1168, 3-[2-(4-o-methoxyphenylpiperazin-1-yl)-ethoxy]-p-cymene dihydrochloride] | > 1000 mg/kg | 3 mg/kg | excellent protection against the toxicity of norepinephrine |  |  |  | 195 nM |  |  |
| Cc1ccc(C(C)C)c(OCCN2CCN(c3ccc(Cl)c(Cl)c3)CC2)c1 [B.1184, 3-[2-4-(3,4-dichloro)phenylpiperazin-1-yl)ethoxy]-p-cymene hydrochloride] | > 1000 mg/kg | > 100 mg/kg |  |  |  |  |  | insoluble |  |
| Cc1ccc(C(C)C)c(OCCN2CCN(c3ccc(Cl)cc3)CC2)c1 [B.1191, 3-[2-(4-p-chlorophenylpiperazin-1-yl)ethoxy]-p-cymene dihydrochloride] | > 1000 mg/kg | > 100 mg/kg |  |  |  |  | 331 nM |  |  |
| CCOc1cccc(N2CCN(CCOc3cc(C)ccc3C(C)C)CC2)c1 [B.1204, 3-[2-(4-m-ethoxyphenylpiperazin-1-yl)ethoxy]-p-cymene hydrochlroide] | > 1000 mg/kg | 56 mg/kg |  |  |  |  | 1000 nM |  |  |
| COc1cccc(N2CCN(CCOc3cc(C)ccc3C(C)C)CC2)c1 [B.1206, 3-[2-(4-m-methoxyphenylpiperazin-1-yl)ethoxy]-p-cymene hydrochloride] | > 1000 mg/kg | 100 mg/kg |  |  |  |  | 170 nM |  |  |
| Cc1ccc(C(C)C)c(OCCN2CCN(c3ccccc3C)CC2)c1 [B.1213, 3-[2-(4-o-methylphenylpiperazin-1-yl)-ethoxy]-p-cymene hydrochloride] | > 1000 mg/kg | 15 mg/kg |  |  |  |  | 1100 nM |  |  |
| Cc1ccc(C(C)C)c(OCCN2CCN(c3cc(Cl)ccc3C)CC2)c1 [B.1256] | > 1000 mg/kg | 121 mg/kg |  |  |  |  | > 1000 nM |  |  |
| Cc1ccc(C(C)C)c(OCCN2CCN(c3ccccc3F)CC2)c1 [B.1261, 3-[2-(4-o-fluorophenylpiperazin-1-yl)ethoxy]-p-cymene hydrochloride] | > 1000 mg/kg | 20 mg/kg |  |  |  |  | 363 nM |  |  |
| Cc1ccc(C(C)C)c(OCCN2CCN(c3c(C)cccc3Cl)CC2)c1 [B.1326] | > 1000 mg/kg | > 200 mg/kg |  |  |  |  | > 1000 nM |  |  |
| Cc1ccc(C(C)C)c(OCCN2CCN(c3ccccc3O)CC2)c1 [B.1338] | > 1000 mg/kg | 6.4 mg/kg |  | 11.8 | 1.6 mg/kg | 19 mg/kg | 40.7 nM |  |  |
| CCCCOc1ccccc1N1CCN(CCOc2cc(C)ccc2C(C)C)CC1 [B.1340] | > 1000 mg/kg | 11.3 mg/kg |  |  |  |  | > 1000 nM |  |  |
| Cc1ccc(C(C)C)c(OCCN2CCN(c3cccc(O)c3)CC2)c1 [B.1343] | > 1000 mg/kg | 142 mg/kg |  |  |  |  | 832 nM |  |  |
| Cc1ccc(N2CCN(CCOc3cc(C)ccc3C(C)C)CC2)c(Cl)c1 [B.1353] | > 1000 mg/kg | 30.9 mg/kg |  |  |  |  | > 1000 nM |  |  |
| CCCCCOc1ccccc1N1CCN(CCOc2cc(C)ccc2C(C)C)CC1 [B.1356] | > 1000 mg/kg | 31.1 mg/kg |  |  |  |  | > 1000 nM |  |  |
| CCCOc1ccccc1N1CCN(CCOc2cc(C)ccc2C(C)C)CC1 [B.1358] | > 1000 mg/kg | 2.1 mg/kg | excellent protection against the toxicity of norepinephrine | 4.1 | 1.22 mg/kg | 5 mg/kg | > 1000 nM |  |  |
| COc1ccc(OC)c(N2CCN(CCOc3cc(C)ccc3C(C)C)CC2)c1 [B.1387] | > 1000 mg/kg | 6.78 mg/kg | excellent protection against the toxicity of norepinephrine |  |  |  | 355 nM |  |  |
| Cc1ccc(C(C)C)c(OCCN2CCN(c3c(C)cccc3C)CC2)c1 [B.1393] | > 1000 mg/kg | > 200 mg/kg |  |  |  |  | > 1000 nM |  |  |
| Cc1ccc(C(C)C)c(OCCN2CCN(c3ccccc3OC(C)C)CC2)c1 [B.1399] | ~500 mg/kg | 0.78 mg/kg | excellent protection against the toxicity of norepinephrine | 9.1 | 0.18 mg/kg | 1.64 mg/kg |  |  | 6.69 |
